Measured values: patent US11174282B2, “Aminosteroid derivatives and process for producing same” (UNIVERSITÉ LAVAL, priority 2016, dated 2021)
Entries after “also recorded” stand apart in the source; their conditions may differ. Like-named read-outs stand apart in the source and are kept apart here.

What was measured:
[1] = test system: PANC-1, BxPC-3, Hs766, OVCAR-3, Caov3, SKOV3, MCF-7, T-47D and LAPC-4 cell lines; assay: Cytotoxic activity screening at 5 and 1 μM on cancer cell lines; conditions: independently of the cancer cell line tested, result in words
Experimental: The cell proliferation assay was performed using 3-(4,5-dimethylthiazol-2-yl)-5-(3-carboxymethoxyphenyl)2-(4-sulfophenyl)-2H-tetrazolium (MTS) (Cell Titer 96 Aqueous, Promega, Nepean, ON, Canada) as previously described [3, 4, 5]. Briefly, cells were plated in triplicate in 96-well plates (1×10^4 cells/well) in appropriate culture medium (total of 90 μL). Before each treatment, the cells were incubated at 37° C. in a 5% CO2 humidified atmosphere for 24 h. The different aminosteroids were dissolved in methanol (50 mM). The stock solutions were diluted at multiple concentrations with culture media in order to obtain the desired final concentration followed by the addition of 10 μL to each well, and the mixture incubated for 3 days. Following treatment, MTS (10 μL) was added to each well and the mixture was incubated for 4 h.

Water solubility = assay type: physicochemical; conditions: relative to RM-581-OH
[2] = test system: Human pancreas cancer cells (PANC-1); assay: Cell proliferation assay (MTS), PANC-1; assay type: cell-based; conditions: Homo sapiens, PANC-1, 72 h, 3 days treatment, MTS; read-out: IC50 (μM) Pancreatic cancer PANC-1
Experimental: (§1) The different aminosteroids were dissolved in methanol (50 mM).

[3] = Metabolic stability assay, human liver microsomes; conditions: 10 μM, 1 h, 40 μg human liver microsomes; result in words
Experimental: (§2) Assays were performed at 37° C. for 1 h, with or without 10 mM NADPH in the presence of 40 μg of human liver microsome from Corning (Melrose, Mass., USA) and 10 μM of aminosteroid substrate in a final 100 μL volume of 50 mM Tris buffer (pH 7.4) supplemented with 10 mM MgCl2. Assays were ended by adding 100 μL of MeOH followed by centrifugation at 13,000 g for 10 min to obtain a pellet of proteins. The supernatant of 2 assays was pooled and submitted to HPLC-MS analysis (Shimadzu LCMS-2020 APCI, Alltima HP C18 (250 mm×4.6 mm, 5 μm) column, MeOH:H2O gradient). Remaining substrate (expressed in %) was calculated by dividing the area under the curve of the substrate for the assays without NADPH by the area under the curve of the substrate for the assays with NADPH and multiplied by 100. Values represent the average of 2 independent experiments.

[4] = test system: OVCAR-3 cells (ovarian cancer); assay: Cell proliferation assay (MTS), OVCAR-3; assay type: cell-based; conditions: Homo sapiens, OVCAR-3, 72 h, 3 days treatment, MTS; read-out: IC50 (μM) Ovarian cancer OVCAR-3
Experimental: as §1

[5] = test system: PC-3 (prostate cancer) cells; assay: Cell proliferation assay (MTS), PC-3; assay type: cell-based; conditions: 72 h, read-out: IC50 (μM) Prostate cancer PC-3
Experimental: as §1

[6] = test system: MCF-7 breast cancer cells; assay: Cell proliferation assay (MTS), MCF-7; assay type: cell-based, human; conditions: 3 days treatment
Experimental: as §1

[7] = test system: T-47D breast cancer cell line; assay: Cell proliferation assay (MTS), T-47D; assay type: cell-based; conditions: 72 h; for IC50: Homo sapiens, T47D, 3 days treatment, MTS
Experimental: as §1

[8] = test system: LNCaP (prostate cancer) cells; assay: Cell proliferation assay (MTS), LNCaP; assay type: cell-based; conditions: Homo sapiens, 72 h, read-out: IC50 (μM) Prostate cancer LNCaP
Experimental: as §1

[9] = test system: LAPC-4 (prostate cancer) cells; assay: Cell proliferation assay (MTS), LAPC-4; assay type: cell-based; conditions: Homo sapiens, LAPC4, 72 h, 3 days treatment, MTS; read-out: IC50 (μM) Prostate cancer LAPC-4
Experimental: as §1

[10] = test system: human MCF-7 breast tumors; assay: MCF-7 tumor growth (xenograft) in ovariectomized nude mice; assay type: in vivo; conditions: 60 mg/kg s.c., 28-day treatment
Description: FIG. 2 is an illustration of the effect of aminosteroid RM-581-102 (compound 6) on MCF-7 tumor growth. A) Effect of a 28-day treatment on 17β-estradiol (E2)-induced growth of human MCF-7 breast tumors in ovariectomized (OVX) nude mice in accordance with an embodiment of the present disclosure. Tumor sizes are expressed as the percentage of initial tumor area (day 1 of treatment=100%). Data are expressed as the mean±SEM (n=10-12 tumors and 6-7 mice per group). […] B) Initial and final body weight of the mice.

[11] = test system: renal proximal tubule epithelial cells (RPTEC); assay: Toxicity on normal cells (MTS), RPTEC; assay type: cell-based, human; conditions: Homo sapiens, RPTEC, normal (kidney) cells; read-out: IC50 (μM) RPTEC (normal cells)
Experimental: as §1

[12] = human, microsomes, 1 h, 10 μM, pH 7.4
Experimental: as §2

[13] = test system: MCF-10A cells (model for normal breast cells); assay: Cell proliferation assay (MTS), MCF-10A; assay type: cell-based
Experimental: A selectivity index (SI) for RM-581-102 was calculated as the ratio of its IC50 value in MCF-10A cells, a cell line used as a model for normal breast cells, versus its IC50 value in MCF-7 breast cancer cells (Table 4). […] It would thus appear that the replacement of the 5α-androstane-3α,17β-diol backbone by that of mestranol, is beneficial for the selectivity of these aminosteroid derivatives.
as §1

in vivo = conditions: female, Balb/c, mouse
Experimental: The plasmatic concentration (AUC) of RM-581-102 was determined following four different methods of administration (s.c., p.o., i.v. and i.p.) at the following concentrations: 60 mg/kg of body weight in 0.1 mL for s.c. and p.o. administration; 2 mg/kg of body weight in 0.02 mL for i.v. caudal administration; and 20 mg/kg of body weight in 0.1 mL for i.p. administration. For the s.c., p.o. and i.p. administrations, RM-581-102 was first dissolved in DMSO followed by the addition of propylene glycol to obtain a final concentration of DMSO of 8%. Regarding the i.v. administration, RM-581-102 was first dissolved in DMSO (8%) followed by the addition of DMA (38%) and propylene glycol (60%). For the i.v. administration, the mice were fasted over a period of 8 h before injection of RM-581-102.
Animals: Six to seven week-old female Balb/c mice weighing approximately 18 g were obtained from Charles-River, Inc (St-Constant, Qc., Canada). The animals were acclimatized to environmental conditions (temperature: 22±3° C.; humidity: 50±20%; 12-h light/12-h dark cycles, lights on at 07:15 h) for at least 5 days before starting the experiment. The animals were housed three per cage and were allowed free access to water and a certified commercial rodent food (Rodent diet #T.2018.15, Harlan Teklad, Madison, Wis., U.S.A.). The experiments with the animals were conducted in an animal facility approved by the Canadian Council on Animal Care (CCAC) and the Association for Assessment and Accreditation of Laboratory Animal Care. The study was performed in accordance with the CCAC Guide for Care and Use of Experimental Animals. Institutional approval was obtained.
Assay: The pharmacokinetic study was carried out following four different methods of administration (s.c., p.o., i.v. and i.p.) of RM-581-102 at the following concentrations: 60 mg/kg of body weight in 0.1 mL for s.c. and p.o. administration; 2 mg/kg of body weight in 0.02 mL for i.v. caudal administration; and 20 mg/kg of body weight in 0.1 mL for i.p. administration. For the s.c., p.o. and i.p. administrations, RM-581-102 was first dissolved in DMSO followed by the addition of propylene glycol to obtain a final concentration of DMSO of 8%. Regarding the i.v. administration, RM-581-102 was first dissolved in DMSO (8%) followed by the addition of DMA (38%) and propylene glycol (60%). For the i.v. administration, the mice were fasted over a period of 8 h before injection of RM-581-102. Blood samples for the determination of RM-581-102 plasma concentrations were collected by cardiac puncture at target intervals ranging from 5 minutes to 24 hours post-dose administration from 3 mice/time point. The blood samples were collected in Microvette® potassium-EDTA (ethylenediamine tetra-acetic acid)-coated tubes (Sarstedt AG & Co, Germany) and centrifuged at 3200 rpm for 10 minutes at 4° C. The plasma was subsequently collected and stored at −80° C. until analysis by liquid chromatography/mass spectrometry/mass spectrometry (LC/MS/MS).
The plasma concentrations of RM-581-102 was determined by LC/MS/MS analysis using a procedure developed at CHUQ (CHUL)—Research Center (Bioanalytical Service). For extraction from the plasma, a plasma sample (100 μL) was transferred to individual tubes and 600 μL of ammonium acetate (1 mM) was added. A methanolic solution (50 μL) containing a deuterated steroid internal standard was then added to each tube. Samples were then transferred on Strata-X SPE columns (Phenomenex, Torrance, Calif., USA) and each column was washed with water and methanol:water (10:90, v/v). RM-581-102 was then eluted with 5 mL of methanol containing 1 mM ammonium acetate.

C#C[C@@]1(O)CC[C@H]2[C@@H]3CCc4cc(OP(=O)(O)O)c(N5CCN(C(=O)[C@@H]6CCCN6C(=O)c6ccc7ccccc7n6)CC5)cc4[C@H]3CC[C@@]21C [Compound 5, (17β)-17-ethynyl-17-hydroxy-2-{4-[1-(quinolin-2-ylcarbonyl)-L-prolyl]piperazin-1-yl}estra-1,3,5(10)-trien-3-yl dihydrogen phosphate]
cytotoxic activity in screening (cell survival) [1]: without adversely affecting the antiproliferative properties; also recorded: only slight differences in their respective levels of activity | water solubility (Water solubility): significant enhancement of water solubility | IC50 [2]: 2.6 ± 0.1 µM | metabolic stability (% of remaining compound) [3]: stability similar to its phenolic counterpart | IC50 [4]: 4.6 ± 0.7 µM | IC50 [5]: 1.3 ± 0.05 µM | IC50 ([6]; Homo sapiens, MCF7, 72 h): 1.5 ± 0.3 µM | IC50 [7]: 0.3 ± 0.05 µM | IC50 [8]: 0.6 ± 0.05 µM | IC50 [9]: 0.3 ± 0.07 µM

C#C[C@]1(O)CC[C@H]2[C@@H]3CCc4cc(OC)c(N5CCN(C(=O)[C@@H]6CCCN6C(=O)c6ccc7ccccc7n6)CC5)cc4[C@H]3CC[C@@]21C [RM-581, {4-[17α-Ethynyl-17I-hydroxy-3-methoxyestra-1,3,5(10)-trien-2-yl]piperazin-1-yl}[(2S)-1-(quinolin-2-ylcarbonyl)pyrrolidin-2-yl]methanone]
IC50 [2]: 3.9 ± 0.9 µM | behavioral changes, signs of toxicity and weight loss ([10]; compared with control groups): no behavioral changes, signs of toxicity and weight loss | MCF-7 tumor growth (tumor size, % of initial tumor area) ([10]; 6 days per week, E2-stimulated OVX nude mice): complete blockade of tumor growth; also recorded: significant tumor regression from day 21 up to day 28 | IC50 [11]: > 50 µM | IC50 [4]: 5 ± 0.5 µM | IC50 ([5]; 3 days treatment, MTS): 1.6 ± 0.3 µM | IC50 [6]: 2.6 ± 0.3 µM | IC50 ([6]; listed as RM-581-102): 1.1 ± 0.1 µM | metabolic stability (% of remaining compound) [12]: significantly more stable toward phase-I hepatic metabolism than RM-133 | IC50 ([13]; Homo sapiens, MCF-10A, model for normal breast cells): 16.8 µM | times more selective compared to RM-133 ([13]; in vitro MCF-7 and MCF-10A cell models): 5.1 times | Selectivity Index ([13]; ratio of IC50 in MCF-10A cells versus IC50 in MCF-7 cells): 15.3 | IC50 [7]: 0.5 ± 0.05 µM | cytotoxic activity compared with known antineoplastic agents ([7]; T-47D, 1.0 and 5 μM, vs paclitaxel, gemcitabine, fluorouacil, oxaliplatin, irinotecan): stronger cytotoxic activities at both concentrations | IC50 ([8]; 3 days treatment, MTS): 1.2 ± 0.6 µM | IC50 [9]: 0.6 ± 0.3 µM | AUC(0-t) (in vivo; ip, 20 mg/kg): 11400 ng·h/mL | concentration at 3 h (in vivo; ip, 20 mg/kg): 5300 ng/mL | AUC(0-t) (in vivo; iv, 2 mg/kg): 595 ng·h/mL | concentration at 3 h (in vivo; iv, 2 mg/kg): 300 ng/mL | AUC(0-t) (in vivo; po, 60 mg/kg): 5540 ng·h/mL | concentration at 3 h (in vivo; po, 60 mg/kg): 550 ng/mL | AUC(0-t) (in vivo; sc, 60 mg/kg): 7760 ng·h/mL | concentration at 3 h (in vivo; sc, 60 mg/kg): 600 ng/mL
